ChEMBL document CHEMBL2146463, “Apoptosis-inducing effects of distichamine and narciprimine, rare alkaloids of the plant family Amaryllidaceae” (Bioorg Med Chem Lett, 2012)
Active and inactive are the calls of the source. No cut-off for these calls is given here.

Experiments:
[1] = Induction of apoptosis in rat 5123TC cells assessed as apoptotic index at 25 uM after 48 hrs; format: functional
BJ = test: Cytotoxicity against human BJ cells after 72 hrs by Calcein AM assay
HeLa = test: Cytotoxicity against human HeLa cells after 72 hrs by Calcein AM assay; format: functional, cell-based
[2] = Induction of apoptosis in rat 5123TC cells after 48 hrs; format: functional; conditions: read-out: ED50 (the source's name)
G-361 = test: Cytotoxicity against human G361 cells after 72 hrs by Calcein AM assay; format: functional, cell-based; conditions: G-361, 72 h
MCF7 [3] = test: Cytotoxicity against human MCF7 cells after 72 hrs by Calcein AM assay; format: functional, cell-based; conditions: MCF7, 72 h
CCRF-CEM [4] = test: Cytotoxicity against human CEM cells after 72 hrs by Calcein AM assay; format: functional, cell-based
K562 = test: Cytotoxicity against human K562 cells after 72 hrs by Calcein AM assay; format: functional, cell-based; conditions: K562, 72 h
MCF7 [5] = test: Cytotoxicity against human MCF7 cells; format: functional, cell-based
CCRF-CEM [6] = test: Induction of apoptosis in human CEM cells assessed as increase cleavage of PARP at 20 uM after 24 hrs by Western Blot analysis; format: functional, cell-based
CCRF-CEM [7] = test: Induction of apoptosis in human CEM cells assessed as increase cleavage of PARP at 10 uM after 24 hrs by Western Blot analysis; format: functional, cell-based
CCRF-CEM [8] = test: Induction of apoptosis in human CEM cells assessed as decrease level of procaspase-3 at 10 uM after 24 hrs by Western Blot analysis; format: functional, cell-based
CCRF-CEM [9] = test: Cell cycle arrest in human CEM cells assessed as accumulation at sub-G1 phase at 1 to 20 uM after 24 hrs by FACS analysis relative to control; format: functional
CCRF-CEM [10] = test: Induction of apoptosis in human CEM cells assessed increase in expression of p53 at 10 uM after 24 hrs by Western Blot analysis; format: functional, cell-based
CCRF-CEM [11] = test: Cell cycle arrest in human CEM cells assessed as decrease accumulation at G0/G1 phase at 1 to 20 uM after 24 hrs by FACS analysis; format: functional, cell-based
CCRF-CEM [12] = test: Induction of apoptosis in human CEM cells assessed as decrease level of procaspase-3 after 24 hrs by Western Blot analysis; format: functional, cell-based
CCRF-CEM [13] = test: Induction of apoptosis in human CEM cells assessed decrease level of Mcl-1 at 20 uM after 24 hrs by Western Blot analysis; format: functional, cell-based
CCRF-CEM [14] = test: Induction of apoptosis in human CEM cells assessed as decrease level of procaspase-3 at 20 uM after 24 hrs by Western Blot analysis; format: functional, cell-based
CCRF-CEM [15] = test: Induction of apoptosis in human CEM cells assessed increase in expression of p53 at 20 uM after 24 hrs by Western Blot analysis; format: functional, cell-based
CCRF-CEM [16] = test: Induction of apoptosis in human CEM cells assessed as […] after 24 hrs by Western Blot analysis; format: functional, cell-based
CCRF-CEM [17] = test: Induction of apoptosis in human CEM cells assessed as increase in activity of caspases-3/7 at 20 uM after 24 hrs by fluorescence analysis relative to control; format: functional
CCRF-CEM [18] = test: Induction of apoptosis in human CEM cells assessed increase in expression of p53 after 24 hrs by Western Blot analysis; format: functional, cell-based
CCRF-CEM [19] = test: Induction of apoptosis in human CEM cells assessed activity of Bcl-2 at 1 to 20 uM after 24 hrs by Western Blot analysis; format: functional, cell-based
CCRF-CEM [20] = test: Cell cycle arrest in human CEM cells assessed as decrease accumulation at S phase at 1 to 20 uM after 24 hrs by FACS analysis; format: functional, cell-based
CCRF-CEM [21] = test: Cell cycle arrest in human CEM cells assessed as increase accumulation at G2/M phase after 24 hrs by FACS analysis; format: functional, cell-based
NCI-H460 = test: Cytotoxicity against human NCI-H460 cells by MTT assay; format: functional, cell-based
CCRF-CEM [22] = test: Induction of apoptosis in human CEM cells assessed decrease level of Mcl-1 at 1 to 20 uM after 24 hrs by Western Blot analysis; format: functional, cell-based
CCRF-CEM [23] = test: Induction of apoptosis in human CEM cells assessed as decrease level of procaspase-3 at 1 to 20 uM after 24 hrs by Western Blot analysis; format: functional, cell-based
CCRF-CEM [24] = test: Cell cycle arrest in human CEM cells assessed as accumulation at sub-G1 phase at 20 uM after 24 hrs by FACS analysis relative to control; format: functional, cell-based
CCRF-CEM [25] = test: Induction of apoptosis in human CEM cells assessed as increase cleavage of PARP at 1 to 20 uM after 24 hrs by Western Blot analysis; format: functional, cell-based

## COc1c2c(cc3c1[C@@H](O)N1CC[C@]34[C@H]3O[C@H]3[C@H](OC)C[C@@H]14)OCO2
[1]
  Activity: 25%

## CO[C@@H]1C=C[C@@]23c4cc5c(cc4CN(C[C@@H]2O)[C@H]3C1)OCO5 [(+)-HAEMANTHAMINE]
BJ
  IC50: 2.7 µM
HeLa
  IC50: 7 µM
[2]
  EC50: 15 µM
G-361
  IC50: 3.7 µM
MCF7 [3]
  IC50: 8.1 µM
CCRF-CEM [4]
  IC50: 2.1 µM
[1]
  Activity: 90%
K562
  IC50: 3.4 µM

## CN[C@@H]1C[C@H]2O[C@@](C)([C@@H]1OC)n1c3ccccc3c3c4c(c5c6ccccc6n2c5c31)C(=O)NC4 [STAUROSPORINE]
CCRF-CEM [4]
  IC50: 0.023 µM

## O=C1N[C@@H]2C(=C[C@H](O)[C@@H](O)[C@H]2O)c2cc3c(c(O)c21)OCO3 [NARCICLASINE]
MCF7 [5]
  IC50: 0.01 µM

## COc1ccc2c3c1O[C@H]1CC(=O)C=C[C@@]31CCN(C)C2 [NARWEDINE]
BJ
  IC50: > 50 µM
HeLa
  IC50: > 50 µM
G-361
  IC50: > 50 µM
MCF7 [3]
  IC50: > 50 µM
CCRF-CEM [4]
  IC50: 31.6 µM
K562
  IC50: > 50 µM

## COC1=CC(=O)[C@@]23CCN(Cc4c2cc2c(c4OC)OCO2)[C@@H]3C1 [DISTICHAMINE]
CCRF-CEM [6]
  Activity: Active
CCRF-CEM [7]
  Activity: Active
CCRF-CEM [8]
  Activity: Active
CCRF-CEM [9]
  Activity: 23.7%
CCRF-CEM [10]
  Activity: Active
CCRF-CEM [11]
  Activity: Active
CCRF-CEM [12]
  Activity: Dose-dependent effect
BJ
  IC50: 10.5 µM
CCRF-CEM [13]
  Activity: Active
HeLa
  IC50: 2.2 µM
CCRF-CEM [14]
  Activity: Active
CCRF-CEM [15]
  Activity: Active
G-361
  IC50: 14.7 µM
MCF7 [3]
  IC50: 2.3 µM
CCRF-CEM [16]
  Activity: Dose-dependent effect
CCRF-CEM [4]
  IC50: 4.5 µM
CCRF-CEM [17]
  fold change (FC): 12.5
CCRF-CEM [18]
  Activity: Dose-dependent effect
CCRF-CEM [19]
  Activity: inactive
K562
  IC50: 4.1 µM
CCRF-CEM [20]
  Activity: Active
CCRF-CEM [21]
  Activity: Dose-dependent effect

## O=C(O[C@H]1[C@H](O)[C@@H](O)[C@@H](O)[C@@H]2NC(=O)c3c(cc4c(c3O)OCO4)[C@H]21)c1ccccc1 [PHENPANSTATIN]
NCI-H460
  IC50: 0.00023 µM

## COc1c2c(cc3c1OCO3)[C@]13C=C[C@H](OC)C[C@H]1N(CC3)C2 [BUPHANIDRINE]
BJ
  IC50: 26.2 µM
HeLa
  IC50: > 50 µM
G-361
  IC50: > 50 µM
MCF7 [3]
  IC50: > 50 µM
CCRF-CEM [4]
  IC50: > 50 µM
K562
  IC50: > 50 µM

## O=c1[nH]c2c(O)cccc2c2cc3c(c(O)c12)OCO3 [NARCIPRIMINE]
CCRF-CEM [22]
  Activity: inactive
CCRF-CEM [23]
  Activity: inactive
CCRF-CEM [11]
  Activity: Active
CCRF-CEM [24]
  Activity: Active
BJ
  IC50: 7.9 µM
HeLa
  IC50: > 50 µM
G-361
  IC50: > 50 µM
MCF7 [3]
  IC50: > 50 µM
CCRF-CEM [4]
  IC50: 13.3 µM
CCRF-CEM [17]
  fold change (FC): 1.8
CCRF-CEM [18]
  Activity: Dose-dependent effect
CCRF-CEM [25]
  Activity: inactive
CCRF-CEM [19]
  Activity: inactive
K562
  IC50: > 50 µM
CCRF-CEM [20]
  Activity: Active
CCRF-CEM [21]
  Activity: Dose-dependent effect

## COc1cc2c(cc1OC)[C@H]1[C@H]3C(=CC[C@H]1OC2=O)CCN3C [HOMOLYCORINE]
BJ
  IC50: 20.8 µM
HeLa
  IC50: > 50 µM
G-361
  IC50: 32.9 µM
MCF7 [3]
  IC50: > 50 µM
CCRF-CEM [4]
  IC50: 15 µM
K562
  IC50: 19.4 µM

## CO[C@H]1C=C[C@@]23c4cc5c(cc4CN(C[C@@H]2O)[C@H]3C1)OCO5
[2]
  EC50: 12.5 µM
[1]
  Activity: 90%

## O[C@H]1[C@H]2c3cc4c(cc3CN3CCC(=C[C@@H]1O)[C@H]23)OCO4 [LYCORINE]
BJ
  IC50: 1.9 µM
HeLa
  IC50: 10.6 µM
G-361
  IC50: 5 µM
MCF7 [3]
  IC50: 13 µM
CCRF-CEM [4]
  Activity: Dose-dependent effect
  IC50: 1.6 µM
K562
  IC50: 3.6 µM

## COc1ccc2c3c1O[C@H]1C[C@@H](O)CC[C@]31CCN(C)C2 [LYCORAMINE]
BJ
  IC50: > 50 µM
HeLa
  IC50: > 50 µM
G-361
  IC50: > 50 µM
MCF7 [3]
  IC50: > 50 µM
CCRF-CEM [4]
  IC50: > 50 µM
K562
  IC50: > 50 µM

## O=C1N[C@H]2[C@H](O)[C@H](O)[C@@H](O)[C@H](O)[C@@H]2c2cc3c(c(O)c21)OCO3 [PANCRATISTATIN]
MCF7 [5]
  IC50: 0.071 µM

## COc1ccc2c3c1O[C@H]1C[C@@H](O)C=C[C@@]31CCN(C)C2 [GALANTAMINE]
BJ
  IC50: > 50 µM
HeLa
  IC50: > 50 µM
G-361
  IC50: > 50 µM
MCF7 [3]
  IC50: > 50 µM
CCRF-CEM [4]
  IC50: > 50 µM
K562
  IC50: > 50 µM
